Data from article PMC6301270 (MedChemComm, 2018).

The compounds below were run on T.b. brucei (strain 427) bloodstream form parasites (assay: T.b. brucei single concentration screen (10 μM)). Details: Trypanosoma brucei, read-out: T.b.brucei % viability (10 µM).
In the case of `COc1cc(C2=NCCN2)ccc1-c1cn(-c2cccc(C3=NCCN3)c2)nn1` [MMV688407, COc1cc(ccc1c2cn(nn2)c3cccc(c3)C4=NCCN4)C5=NCCN5], the viability at 10 µM is reported as 87%.
Compound `CC1=Nc2ccc(Cl)cc2C(c2ccccc2)N1CCNC(=O)CN(C)C` (stereo not drawn) [MMV688410, CN(C)CC(=O)NCCN1C(c2ccccc2)c3cc(Cl)ccc3N=C1C] has a viability at 10 µM of 77%.
`Nc1ncnc2c1c(-c1cnc3ccccc3c1)nn2CC1CCNCC1` [MMV688411, Nc1ncnc2n(CC3CCNCC3)nc(-c3cnc4ccccc4c3)c12] showed a viability at 10 µM of 104%.
Compound `CO[C@@H]1CN(c2ccc(C#CC3(O)CN4CCC3CC4)c(Cc3ccccc3)n2)C[C@H]1O` (stereo partly drawn) [MMV688415, CO[C@@H]1CN(C[C@H]1O)c2ccc(C#CC3(O)CN4CCC3CC4)c(Cc5ccccc5)n2] has a viability at 10 µM of 99%.
`CC(C)(C)OC(=O)N1CCN(c2nccc(-c3ccc(-c4ccc(Cl)cc4)s3)n2)CC1` [MMV688416, CC(C)(C)OC(=O)N1CCN(CC1)c2nccc(n2)c3ccc(s3)c4ccc(Cl)cc4] was tested, and the viability at 10 µM was 94%.
`Cn1ccnc1CNCCS(=O)(=O)c1cccc(Nc2ccc(-c3cccc(F)c3)cn2)c1` [MMV688466, Cn1ccnc1CNCCS(=O)(=O)c2cccc(Nc3ccc(cn3)c4cccc(F)c4)c2] gave a viability at 10 µM of 87%.
For `Nc1ncnc2[nH]nc(Cc3cccc4ccccc34)c12` [MMV688469, Nc1ncnc2[nH]nc(Cc3cccc4ccccc34)c12], the viability at 10 µM was 98%.
In the case of `CS(=O)(=O)N1CCC(CCn2nc(Cc3cccc4ccccc34)c3c(N)ncnc32)CC1` [MMV688470, CS(=O)(=O)N1CCC(CCn2nc(Cc3cccc4ccccc34)c3c(N)ncnc23)CC1], the viability at 10 µM is reported as 99%.
`CC(C(=O)Nc1ccc2oc(-c3ccncc3)nc2c1)c1ccccc1` (stereo not drawn) [MMV688471, CC(C(=O)Nc1ccc2oc(nc2c1)-c1ccncc1)c1ccccc1] was tested, and the viability at 10 µM was 67%.
Work on `CC(Oc1cccc(Cl)c1)C(=O)Nc1ccc2oc(-c3ccncc3)nc2c1` (stereo not drawn) [MMV688472, CC(Oc1cccc(Cl)c1)C(=O)Nc1ccc2oc(nc2c1)-c1ccncc1] yielded a viability at 10 µM of 71%.
In the case of `COc1cc(C2=NCCN2)ccc1-n1cc(-c2cccc(C3=NCCN3)c2)nn1` [MMV688474, COc1cc(ccc1n2cc(nn2)c3cccc(c3)C4=NCCN4)C5=NCCN5], the viability at 10 µM is reported as 105%.
`CC(=O)NCC1CN(c2ccc(-c3ccc(CO)cc3)c(F)c2)C(=O)O1` (stereo not drawn) [MMV688508, CC(=O)NCC1CN(C(=O)O1)c2ccc(c(F)c2)c3ccc(CO)cc3] showed a viability at 10 µM of 81%.
Work on `O=C(OCc1ccccc1)N1CCC(c2cc(-c3ccncc3)c(-c3ccc(F)cc3)[nH]2)CC1` [MMV688509, Fc1ccc(cc1)-c1[nH]c(cc1-c1ccncc1)C1CCN(CC1)C(=O)OCc1ccccc1] yielded a viability at 10 µM of 85%.
`CC(C)(C)C(=O)N(CCCCCCN1C[C@H](O)[C@@H](O)[C@H](O)[C@H]1CO)C1CCCCCC1` [MMV688543, CC(C)(C)C(=O)N(CCCCCCN1C[C@H](O)[C@@H](O)[C@H](O)[C@H]1CO)C2CCCCCC2] showed a viability at 10 µM of 107%.
`COc1ccc(C2=NCCN2)cc1-c1cn(-c2cccc(C3=NCCN3)c2)nn1` [MMV688547, COc1ccc(cc1c2cn(nn2)c3cccc(c3)C4=NCCN4)C5=NCCN5] was tested, and the viability at 10 µM was 77%.
With `CC(C)(C)n1nc(-c2ccccc2)c2c(N)ncnc21` [MMV688548, CC(C)(C)n1nc(-c2ccccc2)c2c(N)ncnc12] the viability at 10 µM was 81%.
For `Cc1nn(C(=O)Nc2cccc(C(F)(F)F)c2)c(C)c1Sc1ncccn1` [MMV688552, CC(C(SC1=NC=CC=N1)=C2C)=NN2C(NC3=CC=CC(C(F)(F)F)=C3)=O], the viability at 10 µM was 96%.
In the case of `O=C(NCc1ccoc1)N1CCN(Cc2ccc3c(c2)OCO3)CC1` [MMV688553, O=C(NCc1cocc1)N2CCN(Cc3ccc4OCOc4c3)CC2], the viability at 10 µM is reported as 98%.
Compound `CNc1snc(C)c1C(=O)NCCOc1ccc(OC)cc1` [MMV688554, CNc1snc(C)c1C(=O)NCCOc2ccc(OC)cc2] has a viability at 10 µM of 92%.
`O=C(NCc1ccco1)N1CCN(Cc2ccc(Cl)s2)CC1` [MMV688555, Clc1ccc(CN2CCN(CC2)C(=O)NCc3occc3)s1] gave a viability at 10 µM of 103%.
With `NCC(c1cccs1)S(=O)(=O)c1ccccc1` (stereo not drawn) [MMV688557, NCC(c1cccs1)S(=O)(=O)c2ccccc2] the viability at 10 µM was 99%.
Compound `CN1CCC(c2cc(-c3ccncc3)c(-c3ccc(F)cc3)[nH]2)CC1` [MMV688703, CN1CCC(CC1)c1cc(c([nH]1)-c1ccc(F)cc1)-c1ccncc1] has a viability at 10 µM of 68%.
`Cc1cc2nc(NC(=O)C(C)(C)C)nc(Cl)c2n1Cc1ccc(Cl)cc1` [MMV688704, Cc1cc2nc(NC(=O)C(C)(C)C)nc(Cl)c2n1Cc1ccc(Cl)cc1] gave a viability at 10 µM of 88%.
`CO/N=C(\C(=O)OC)c1ccccc1CO/N=C(\C)c1cccc(C(F)(F)F)c1` [MMV688754, CO\N=C(/C(=O)OC)\c1ccccc1CO\N=C(/C)\c2cccc(c2)C(F)(F)F] gave a viability at 10 µM of 100%.
`O=[N+]([O-])c1cn2c(n1)OC[C@@H](OCc1ccc(OC(F)(F)F)cc1)C2` [MMV688755, [O-][N+](=O)c1cn2C[C@@H](COc2n1)OCc3ccc(OC(F)(F)F)cc3] gave a viability at 10 µM of 95%.
`CC(=O)NC[C@H]1CN(c2ccc(N3CCSCC3)c(F)c2)C(=O)O1` [MMV688756, CC(=O)NC[C@H]1CN(C(=O)O1)c2ccc(N3CCSCC3)c(F)c2] showed a viability at 10 µM of 106%.
`c1ccc(-c2[nH]c3ccccc3c2C(c2ccccn2)N2CCCC2)cc1` (stereo not drawn) [MMV688762, C1CCN(C1)C(c2ccccn2)c3c([nH]c4ccccc34)c5ccccc5] showed a viability at 10 µM of 108%.
`CNc1nnc(Sc2cnn(-c3ccccc3)c(=O)c2Cl)s1` [MMV688763, CNc1nnc(SC2=C(Cl)C(=O)N(N=C2)c3ccccc3)s1] showed a viability at 10 µM of 49%.
Compound `COc1ccc(-c2onc(C(F)(F)F)c2-c2ccc(Cl)cc2)c(O)c1` [MMV688766, COc1ccc(c(O)c1)c2onc(c2c3ccc(Cl)cc3)C(F)(F)F] has a viability at 10 µM of 88%.
Compound `Cc1ccccc1C(=O)N1N=C(Nc2ccccc2)SC1(C)C` [MMV688771, Cc1ccccc1C(=O)N2N=C(Nc3ccccc3)SC2(C)C] has a viability at 10 µM of 97%.
`O=C(N[C@H](Cc1ccccc1)C(=O)Nc1ccccc1N1CCOCC1)c1cccs1` [MMV688845, O=C(Nc1ccccc1N2CCOCC2)[C@@H](Cc3ccccc3)NC(=O)c4cccs4] was tested, and the viability at 10 µM was 94%.
In the case of `Cc1ccccc1CN1CCC(O)(c2ccc(Cl)c(C(F)(F)F)c2)CC1` [MMV688846, Cc1ccccc1CN2CCC(O)(CC2)c3ccc(Cl)c(c3)C(F)(F)F], the viability at 10 µM is reported as 98%.
Compound `CC(C)(C)n1nc(Cc2ccc(F)c(Cl)c2)c2c(N)ncnc21` [MMV688852, CC(C)(C)n1nc(Cc2ccc(F)c(Cl)c2)c2c(N)ncnc12] has a viability at 10 µM of 87%.
Compound `CCOc1ccc2cc(-c3nn(C(C)(C)C)c(N)c3C(N)=O)cnc2c1` [MMV688853, CCOc1ccc2cc(cnc2c1)c3nn(c(N)c3C(=O)N)C(C)(C)C] has a viability at 10 µM of 99%.
`CCOc1ccc2cc(-c3nn(CC4CCN(C)CC4)c4ncnc(N)c34)ccc2c1` [MMV688854, CCOc1ccc2cc(ccc2c1)c3nn(CC4CCN(C)CC4)c5ncnc(N)c35] gave a viability at 10 µM of 33%.
`CN1CCN(c2cc(-c3ccc(F)cc3)nc(-c3ccncc3)n2)CC1` [MMV688888, CN1CCN(CC1)c2cc(nc(n2)c3ccncc3)c4ccc(F)cc4] was tested, and the viability at 10 µM was 92%.
For `Clc1ccc(CCNc2cc(-c3ccccc3)nc3ncnn23)cc1` [MMV688889, Clc1ccc(CCNc2cc(nc3ncnn23)c4ccccc4)cc1], the viability at 10 µM was 74%.
`COc1cc(Br)cc2cc(C(=O)Nc3cccc(C(F)(F)F)c3)c(=O)oc12` [MMV688891, COc1cc(Br)cc2C=C(C(=O)Nc3cccc(c3)C(F)(F)F)C(=O)Oc12] gave a viability at 10 µM of 96%.
`OC[C@H]1O[C@@H](n2c3ccc(Cl)cc3c3c(-c4cc5ccccc5o4)ncnc32)C(O)[C@H]1O` (stereo partly drawn) [MMV688921, OC[C@H]1O[C@H](C(O)[C@H]1O)n2c3ccc(Cl)cc3c4c(ncnc24)c5oc6ccccc6c5] was tested, and the viability at 10 µM was 97%.
`CCc1nn(C)c(C(=O)NCc2ccc(Oc3ccc(C)cc3)cc2)c1Cl` [MMV688934, CCc1nn(C)c(C(=O)NCc2ccc(Oc3ccc(C)cc3)cc2)c1Cl] was tested, and the viability at 10 µM was 101%.
For `O=C(c1ccco1)N(CCCn1ccnc1)c1nc2c(Cl)cccc2s1` [MMV688936, Clc1cccc2sc(nc12)N(CCCn3ccnc3)C(=O)c4occc4], the viability at 10 µM was 92%.
Compound `CCOc1ccc(-c2nc(CNCCc3ccc(F)cc3)cs2)cc1` [MMV688938, CCOc1ccc(cc1)c2nc(CNCCc3ccc(F)cc3)cs2] has a viability at 10 µM of 63%.
Compound `Cc1ccc2nc(C)c(-c3ccn(Cc4ccccc4)n3)n2c1` [MMV688939, Cc1ccc2nc(C)c(c3ccn(Cc4ccccc4)n3)n2c1] has a viability at 10 µM of 101%.
`COc1cc(CN2CCC3(C=Cc4ccccc43)CC2)cc2c1OCO2` [MMV688941, COc1cc(CN2CCC3(CC2)C=Cc4ccccc34)cc5OCOc15] showed a viability at 10 µM of 114%.
`CC(C)(C)C(O)C(Oc1ccc(-c2ccccc2)cc1)n1cncn1` (stereo not drawn) [MMV688942, CC(C)(C)C(O)C(Oc1ccc(cc1)c2ccccc2)n3cncn3] was tested, and the viability at 10 µM was 79%.
`CC1COC(Cn2cncn2)(c2ccc(Oc3ccc(Cl)cc3)cc2Cl)O1` (stereo not drawn) [MMV688943, CC1COC(Cn2cncn2)(O1)c3ccc(Oc4ccc(Cl)cc4)cc3Cl] was tested, and the viability at 10 µM was 100%.
With `Cc1cc(NC(=O)c2ccc(Oc3ccc(Cl)cc3O)o2)no1` [MMV688955, Cc1cc(NC(=O)c2ccc(Oc3ccc(Cl)cc3O)o2)no1] the viability at 10 µM was 88%.
`CCc1cc(=O)n(C)c(SC(C)C(=O)Nc2ccc(F)cc2)n1` (stereo not drawn) [MMV688980, CCC1=CC(=O)N(C)C(=N1)SC(C)C(=O)Nc2ccc(F)cc2] was tested, and the viability at 10 µM was 101%.
`Clc1ccc(CN2CCN(C3=NCCN3)CC2)cc1Cl` [MMV689060, Clc1ccc(CN2CCN(CC2)C3=NCCN3)cc1Cl] was tested, and the viability at 10 µM was 101%.
`CC(=O)Nc1ccc(-c2noc(CC3CCCN(Cc4cccc(F)c4C)C3)n2)cc1` (stereo not drawn) [MMV689061, CC1=C(F)C=CC=C1CN2CCCC(CC3=NC(C4=CC=C(NC(C)=O)C=C4)=NO3)C2] showed a viability at 10 µM of 92%.
With `FC(F)(F)c1ccc(N(c2cccnc2)C2CCN(c3ccc(C(F)(F)F)cn3)CC2)cc1` [MMV689243, FC(F)(F)c1ccc(cc1)N(C2CCN(CC2)c3ccc(cn3)C(F)(F)F)c4cccnc4] the viability at 10 µM was 103%.
In the case of `O=C([C@@H](c1ccc(Cl)cc1)c1cccnc1)N1CCN(c2ccc(C(F)(F)F)cc2)CC1` [MMV689244, FC(F)(F)c1ccc(cc1)N2CCN(CC2)C(=O)[C@@H](c3ccc(Cl)cc3)c4cccnc4], the viability at 10 µM is reported as 108%.
Compound `Nc1ncnc2c1ncn2C[C@@H](O)[C@@H](O)C(=O)O` [MMV689255, Nc1ncnc2c1ncn2C[C@@H](O)[C@@H](O)C(=O)O] has a viability at 10 µM of 111%.
`CC(c1cc(Cl)cc(Cl)c1)N(C)c1ncc2c(N)nc(N)nc2n1` (stereo not drawn) [MMV689437, CC(N(C)c1ncc2c(N)nc(N)nc2n1)c3cc(Cl)cc(Cl)c3] was tested, and the viability at 10 µM was 98%.
